Assays:
Assay in all cases: relative viability (nuclei count vs DMSO), 5 days (fraction); higher = more cells survive
AZ628 + Crizotinib = compound: CC1=C(C=C(C=C1)NC(=O)C2=CC(=CC=C2)C(C)(C)C#N)NC3=CC4=C(C=C3)N=CN(C4=O)C [AZ628] + C[C@@H](Oc1cc(-c2cnn(C3CCNCC3)c2)cnc1N)c1c(Cl)ccc(F)c1Cl [Crizotinib] (partner 1 µM)
Summary of the method: (§1)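 After 5 days of treatment, lung cancer cells in 1536-well plates were fixed and stained in a single step (final 0.05% Triton X-100, 1% formaldehyde, 1 ug/ml Hoechst) and their nuclei counted on 4× images. Treatment had been applied by pin tool the day after seeding as one drug alone or as a fixed anchor-drug dose with five library-drug doses (not always all listed) in √10 steps. Relative viability is the nuclei count of treated wells divided by that of vehicle wells, and values are medians of duplicate plates.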

QS11 + Alpelisib = compound: C1CC2=C(C1)C=C(C=C2)OC3=NC(=C4C(=N3)N(C=N4)CC5=CC=C(C=C5)C6=CC=CC=C6)N[C@@H](CC7=CC=CC=C7)CO [QS11] + Cc1nc(NC(=O)N2CCC[C@H]2C(N)=O)sc1-c1ccnc(C(C)(C)C(F)(F)F)c1 [Alpelisib] (partner 2 µM)
Summary of the method: as §1

Darinaparsin + Alpelisib = compound: C[As](C)SC[C@H](NC(=O)CC[C@H](N)C(=O)O)C(=O)NCC(=O)O [Darinaparsin] + Cc1nc(NC(=O)N2CCC[C@H]2C(N)=O)sc1-c1ccnc(C(C)(C)C(F)(F)F)c1 [Alpelisib] (partner 2 µM)
Summary of the method: as §1

AZ628 + Alpelisib = compound: CC1=C(C=C(C=C1)NC(=O)C2=CC(=CC=C2)C(C)(C)C#N)NC3=CC4=C(C=C3)N=CN(C4=O)C [AZ628] + Cc1nc(NC(=O)N2CCC[C@H]2C(N)=O)sc1-c1ccnc(C(C)(C)C(F)(F)F)c1 [Alpelisib] (partner 2 µM)
Summary of the method: as §1

Cell Line	relative viability (AZ628 + Crizotinib; first compound 0.08 µM)	relative viability (AZ628 + Crizotinib; first compound 0.253 µM)	relative viability (AZ628 + Crizotinib; first compound 0.8 µM)	relative viability (AZ628 + Crizotinib; first compound 2.53 µM)	relative viability (AZ628 + Crizotinib; first compound 8 µM)	relative viability (QS11 + Alpelisib; first compound 0.08 µM)	relative viability (QS11 + Alpelisib; first compound 0.253 µM)	relative viability (QS11 + Alpelisib; first compound 2.53 µM)	relative viability (QS11 + Alpelisib; first compound 8 µM)	relative viability (Darinaparsin + Alpelisib; first compound 0.08 µM)	relative viability (Darinaparsin + Alpelisib; first compound 0.8 µM)	relative viability (Darinaparsin + Alpelisib; first compound 2.53 µM)	relative viability (Darinaparsin + Alpelisib; first compound 8 µM)	relative viability (AZ628 + Alpelisib; first compound 0.08 µM)	relative viability (AZ628 + Alpelisib; first compound 0.253 µM)	relative viability (AZ628 + Alpelisib; first compound 0.8 µM)	relative viability (AZ628 + Alpelisib; first compound 2.53 µM)	relative viability (AZ628 + Alpelisib; first compound 8 µM)	relative viability (QS11 + Alpelisib; first compound 0.8 µM)
H3255	0.926	0.921	0.949	0.866	0.704	0.782	0.773	0.671	0.903	0.761	0.626	0.636	0.792	0.724	0.653	0.75	0.747	0.496	
LOU-NH91	0.721	0.755	0.755	0.731	0.606	0.687	0.636	0.691	0.697	0.703	0.718	0.749	0.68	0.714	0.747	0.691	0.687	0.577	
NCI-H2126	1.04	0.98	1.06	1.07	1.03	0.74	0.794	0.75	0.731	0.803	0.737	0.616	0.804	0.819	0.734	0.83	0.783	0.653	0.708
PC-14	0.909	0.839	1.04	0.976	0.726	1.08	0.982	1.01	1.02	0.858	1.02	0.742	1.2	1	0.854	0.923	1.01	0.751	0.911
EMC-BAC-2	0.809	0.759	0.76	0.795	0.874	0.802	0.698	0.759	0.594	0.894	0.687	0.709	0.888	0.704	0.645	0.681	0.608	0.706	0.887
HCC-78	0.404	0.403	0.38	0.413	0.4	0.411	0.31	0.43	0.321	0.363	0.301	0.358	0.259	0.5	0.336	0.346	0.368	0.504	0.401
SK-LU-1	0.699	0.874	0.778	0.792	0.885	1.14	0.934	0.774	0.712	1.11	0.956	0.797	1.06	0.733	1.12	0.802	0.934	0.512	0.917
ABC-1	1.37	1.25	0.844	1.02	0.808	0.89	1.02	0.945	1.21	0.966	1.16	1.07	1.28	1.16	1.05	1.17	1.1	0.906	0.932
LK-2	0.192	0.197	0.244	0.203	0.224	1.01	1.15	0.868	1.59	1.37		1.31	1.42	1.23	1.27	0.834	1.08	0.296	1.21
NCI-H23	0.498	0.49	0.347	0.493	0.456	0.647	0.638	0.508	0.69	0.926	0.582	0.711	0.681	0.745	0.622	0.305	0.501	0.377	0.557
NCI-H2228	0.372	0.486	0.5	0.41	0.531	0.705	0.854	1.14	1.11	1.03	0.992	0.735	0.933	0.697	0.984	0.656	0.888	0.351	0.762
NCI-H441	0.809	0.569	0.541	0.694	0.78	0.785	0.843	0.794	0.706	0.774	0.635	0.809	0.893	0.781	0.769	0.814	0.637	0.802	0.784
NCI-H460	1.03	0.92	0.872	0.7	0.38	0.515	0.498	0.3	0.0919	0.566	0.549	0.417	0.821	0.459	0.335	0.325	0.271	0.13	0.554
LU99A	0.601	0.505	0.586	0.566	0.286	0.486	0.528	0.367	0.405	0.592	0.52	0.457	0.606	0.456	0.478	0.628	0.554	0.216	0.596
NCI-H358	0.393	0.435	0.583	0.51	0.32	0.914	0.857	1.5	1.35	0.922	0.87	0.817	0.994	0.745	0.639	0.668	0.571	0.389	1.02
IA-LM	0.971	0.749	0.678	0.829	0.18	0.665	0.747	0.826	0.473	1.02	0.663	1.4	0.965	0.805	0.731	0.552	0.586	0.207	0.378
UMC-11	0.578	0.572	0.684	0.542	0.781	0.939	1.15	1.08	1.02	0.861	0.981	0.683	1.15	1	0.987	0.949	1.13	1.1	1.01
LXF-289	0.791	0.749	0.768	0.76	0.497	1.07	1.05	0.906	0.85	1.11	1.06	0.851	1.16	1.01	1.01	0.963	0.961	0.626	0.764

Cell Line	relative viability (AZ628 + Crizotinib; first compound 0.08 µM)	relative viability (AZ628 + Crizotinib; first compound 0.253 µM)	relative viability (AZ628 + Crizotinib; first compound 0.8 µM)	relative viability (AZ628 + Crizotinib; first compound 2.53 µM)	relative viability (AZ628 + Crizotinib; first compound 8 µM)	relative viability (QS11 + Alpelisib; first compound 0.08 µM)	relative viability (QS11 + Alpelisib; first compound 0.253 µM)	relative viability (QS11 + Alpelisib; first compound 2.53 µM)	relative viability (QS11 + Alpelisib; first compound 8 µM)	relative viability (Darinaparsin + Alpelisib; first compound 0.08 µM)	relative viability (Darinaparsin + Alpelisib; first compound 0.8 µM)	relative viability (Darinaparsin + Alpelisib; first compound 2.53 µM)	relative viability (Darinaparsin + Alpelisib; first compound 8 µM)	relative viability (AZ628 + Alpelisib; first compound 0.08 µM)	relative viability (AZ628 + Alpelisib; first compound 0.253 µM)	relative viability (AZ628 + Alpelisib; first compound 0.8 µM)	relative viability (AZ628 + Alpelisib; first compound 2.53 µM)	relative viability (AZ628 + Alpelisib; first compound 8 µM)	relative viability (QS11 + Alpelisib; first compound 0.8 µM)
NCI-H647	1.24	1.03	1.04	0.984	0.793	1.24	1.25	1.08	0.862	1.57	1.16	0.827	1.31	1.3	0.952	0.842	1.09	0.858	1.02
NCI-H1651	0.864	0.87	0.863	0.902	0.925	1.06	1.1	0.896	0.713	1.11	0.994	0.931	1.27	1.12	1.02	0.84	0.884	0.995	0.822
NCI-H838	0.84	0.842	0.719	0.747	0.655	1.1	0.954	0.919	0.884	1.18	1	0.846	1.14	1.03	0.991	0.953	0.92	0.841	0.755
NCI-H661	0.975			1.1	1.01	0.657	0.599	0.637	0.646	0.632	0.692	0.683	0.668	0.647	0.401	0.497	0.598	0.363	0.658
NCI-H1734	0.561	0.574	0.568	0.621	0.381	0.681	0.719	0.581	0.65	0.829	0.67	0.669	0.766	0.658	0.595	0.571	0.619	0.498	0.697
HCC-827	0.883	0.946	0.928	0.921	0.865	0.907	1.02	1.05	1.01	1.05	1.04	1.01	1.04	0.903	0.9	0.889	0.984	0.555	0.931
201T	1.05	0.999	1.06	1.06	1.08	1.02	1.07	1.08	0.949	1.12	1.03	0.997	0.82	1.08	1.03	1.13	1.09	1.12	0.92
HCC-44	0.801	0.857	0.961	0.912	0.721	0.837	0.755	0.728	0.476	0.833	0.92	0.576	0.979	0.754	0.796	0.801	0.68	0.705	0.659
NCI-H650	0.771	0.73	0.553	0.68	0.599	0.988	1	0.909	1.18	1.17	1.15	1.27	1.31	1.32	1.44	1.38	1.29	0.939	1.14
PC-3 [JPC-3]	0.941	1.04	1	1.06	0.922	1.07	0.998	1.05	1.03	1.02	0.982	0.992	1.11	1.01	1.08	1.06	1.11	0.97	1.1
NCI-H1395							1.2	0.912	1.53	1.17	0.912	0.909	0.945	1.19	1.2	1.03	0.991	0.915	1.12
CAL-12T	0.871		0.565	0.622	0.361	1.28	1.13	0.952	1.06	1.41	1.01	1.28	1.89	1.29		1.2	1.34	0.503	1.25
NCI-H1944	1.2	1.09	0.97	0.973	0.878	0.794	0.896	0.826	0.846	0.946	0.912	0.823	0.905	0.855	0.718	0.673	0.68	0.586	
NCI-H322M	0.819	1.04	1.01	0.795	0.856	0.84	0.83	0.863	0.867	0.89	0.692	0.632	0.787	0.925	0.719	0.824	0.747	0.655	0.87
LCLC-103H	1.13	1.08	1.11	1.09	1.01	1.07	0.979	0.938	0.974	0.945	0.982	0.915	1.11	0.924	1.07	0.981	0.986	0.919	0.797
NCI-H1793						0.719	0.645	0.827	0.791	0.716	0.935	0.643	0.958	0.921	0.75	0.684	0.564	0.593	0.637
ChaGo-K-1	1.18		1.15	1.11	1.16														
NCI-H1650	1.13	0.965	0.998	0.984	0.841														
